Measurements taken from US7851626B2, “4,4,5,5, tetrasubstituted imidazolines” (Hoffmann-La Roche Inc., priority 2005, dated 2010).

Molecular target: interaction between p53 and MDM2 proteins (Homo sapiens, UniProt Q00987)
Experiment: HTRF assay of inhibition of the p53-MDM2 interaction (GST-MDM2 and biotinylated p53 peptide)
Format: binding
Details: recombinant GST-tagged MDM2, biotinylated p53 peptide, 37° C. for 1 h
Description: The ability of the compounds to inhibit the interaction between p53 and MDM2 proteins was measured by an HTRF (homogeneous time-resolved fluorescence) assay in which recombinant GST-tagged MDM2 binds to a peptide that resembles the MDM2-interacting region of p53 (Lane et al.). Binding of GST-MDM2 protein and p53-peptide (biotinylated on its N-terminal end) is registered by the FRET (fluorescence resonance energy transfer) between Europium (Eu)-labeled anti-GST antibody and streptavidin-conjugated Allophycocyanin (APC).
Test is performed in black flat-bottom 384-well plates (Costar) in a total volume of 40 uL containing: 90 nM biotinylate peptide, 160 ng/mL GST-MDM2, 20 nM streptavidin-APC (PerkinElmerWallac), 2 nM Eu-labeled anti-GST-antibody (PerkinElmerWallac), 0.2% bovine serum albumin (BSA), 1 mM dithiothreitol (DTT) and 20 mM Tris-borate saline (TBS) buffer as follows: Add 10 uL of GST-MDM2 (640 ng/mL working solution) in reaction buffer to each well. […] Incubate at 37° C. for 1 h. […] If not specified, the reagents were purchased from Sigma Chemical Co.

interaction between p53 and MDM2 proteins, sequence (Q00987 whole entry): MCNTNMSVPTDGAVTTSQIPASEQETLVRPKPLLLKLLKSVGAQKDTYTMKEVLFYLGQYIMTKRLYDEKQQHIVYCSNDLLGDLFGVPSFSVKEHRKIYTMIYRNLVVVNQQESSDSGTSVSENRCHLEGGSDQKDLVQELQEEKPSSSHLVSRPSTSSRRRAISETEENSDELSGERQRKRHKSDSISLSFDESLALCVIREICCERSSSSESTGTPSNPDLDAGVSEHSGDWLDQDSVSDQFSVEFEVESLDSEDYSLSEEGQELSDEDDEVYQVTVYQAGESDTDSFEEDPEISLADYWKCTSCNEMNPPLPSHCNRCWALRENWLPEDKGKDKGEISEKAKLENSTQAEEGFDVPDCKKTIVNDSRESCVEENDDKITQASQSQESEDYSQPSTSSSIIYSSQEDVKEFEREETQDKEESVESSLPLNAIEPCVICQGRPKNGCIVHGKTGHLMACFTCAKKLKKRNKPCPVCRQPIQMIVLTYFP

Row | IC50 | Structure (SMILES)
1 | 107 nM | CCOc1cc(C(C)(C)C)ccc1C1=N[C@@](C)(c2ccc(Cl)cc2)[C@@H](c2ccc(Cl)cc2)N1C(=O)N1CCN(C(C)=O)CC1 [Example 177, 1-{4-[(4S,5R)-2-(4-tert-Butyl-2-ethoxy-phenyl)-4,5-bis-(4-chloro-phenyl)-4-methyl-4,5-dihydro-imidazole-1-carbonyl]-piperazin-1-yl}-ethanone]
2 | 48 nM | COc1ccc(C2=N[C@@](C)(c3ccc(Cl)cc3)[C@@H](c3ccc(Cl)cc3)N2C(=O)N2CCN(C(C)=O)CC2)c(OC(C)C)c1 (racemic) [Example 190, rac-1-{4-[(4S*,5R*)-4,5-Bis-(4-chloro-phenyl)-2-(2-isopropoxy-4-methoxy-phenyl)-4-methyl-4,5-dihydro-imidazole-1-carbonyl]-piperazin-1-yl}-ethanone]
3 | 17 nM | CCOc1cc(S(=O)(=O)N2CCCC2)ccc1C1=N[C@@](C)(c2ccc(Cl)cc2)[C@@](C)(c2ccc(Cl)cc2)N1C(=O)N1CCN(CC(N)=O)CC1 [Example 35, 2-(4-{(4S,5R)-4,5-Bis-(4-chloro-phenyl)-2-[2-ethoxy-4-(pyrrolidine-1-sulfonyl)-phenyl]-4,5-dimethyl-4,5-dihydro-imidazole-1-carbonyl}-piperazin-1-yl)-acetamide]
